In publication PMC8599359 (Molecular Neurobiology, 2021):
pIC50: −log10 of the molar value.

Experiments:
MMP-2 = test: MMP expression in embryo brain (Western blot); assay type: in vivo, mouse; details: GD 16.5, DTG vs control
Description: (§1) At GD 16.5, embryo whole brain tissues were isolated and homogenized in lysis buffer. Whole brain tissue homogenates were analyzed for expression of MMP-2, 9, and 14 using Western blot assay. Six pups were randomly selected from 6 different dams for both DTG- and vehicle-treated groups. Tissue lysates were centrifuged at 16,000 × g at 4 °C for 20 min and supernatants were collected. Total protein levels in each sample were quantitated using Pierce™ BCA Protein Assay Kit (Thermo Fisher Scientific). Fifteen micrograms of protein for each sample was ran on 10% SDS–polyacrylamide gel. Proteins were transferred to activated PVDF membrane. Membranes were blocked with 5% non-fat milk (BIO-RAD) for 1 h and incubated with individual primary antibody overnight at 4 °C on a shaker. The primary antibodies used were rabbit monoclonal anti-MMP-2 (ab181286, abcam, Cambridge, MA), rabbit polyclonal anti-MMP-9 (ab38898, abcam), rabbit monoclonal anti-MMP-14 (ab51074, abcam), rabbit monoclonal GAPDH (Cell Signaling Technology, Inc., Danvers, MA), and mouse monoclonal β-actin (Santa Cruz Biotechnology, Dallas, TX). All the primary antibodies were used at 1:2000 dilution. After overnight incubation with primary antibody, the membranes were washed with Tris-buffered saline with 0.1% Tween® 20 detergent (TBST) three times (5 min each wash). Membranes were then incubated with secondary antibody for 1 h at room temperature. The secondary antibodies used were goat anti-rabbit IgG H&L (HRP) (ab205718, abcam) and goat anti-mouse IgG H&L (HRP) (ab205719, abcam). For secondary antibodies, 1:10,000 dilutions were used. Blots were developed using SuperSignal™ West Femto Maximum Sensitivity Substrate (Thermo Fisher Scientific) and iBright 750 Imaging System. Band intensity was analyzed using ImageJ software.

MMP-14 [1] = test: MMP expression in embryo brain (Western blot); assay type: in vivo, mouse; details: GD 16.5, DTG vs control
Description: as §1

MMP-9 = test: MMP expression in embryo brain (Western blot); assay type: in vivo, mouse; details: GD 16.5, DTG vs control
Description: as §1

MMP-13 = biological target: T1, MMP-13 (Homo sapiens, UniProt P45452); test: Fluorometric substrate assay (MMP inhibitor profiling kit); assay type: biochemical
T1 construct: purchased Enzo life sciences BML-AK308
Description: (§2) Kit contained a panel of ten MMPs and a quenched fluorogenic substrate OMNIMMP® RED. Composition of a quenched fluorogenic substrate was TQ3-GABA-Pro-Cha-Abu-Smc-His-Ala-Dab(6’-TAMRA)-Ala-Lys-NH2 [TQ3 = quencher; GABA = 4-aminobutyric acid; Cha = L-cyclohexylalanine; Abu = 2-aminobutyric acid; Smc = S-methyl-L-cysteine; Dab = 2,4-diaminobutyric acid; 6’-TAMRA = 6’-tetramethylrhodamine]. Experiment was performed as per instructions provided in the manufacturer’s manual. The assays were performed in a 96-well, black, flat, microplate format. The compound NNGH was provided as a prototypic control inhibitor. […] Untreated MMPs were used as control. The experiment was performed in biological triplicates. After 60-min incubation, fluorogenic substrate OMNIMMP® RED was added to each reaction/well to start the reaction. The plate was continuously read at Ex/Em = 545/576 nm (cutoff at 570 nm) for 30 min with 1-min time intervals at constant temperature, 37 °C, using Molecular Devices SpectraMax M3 plate reader with SoftMax Pro 6.2 software.

MMP-3 = biological target: T2, MMP-3 (Homo sapiens, UniProt P08254); test: as above; assay type: biochemical; details: human recombinant MMP-3, 60 min preincubation, four-parameter fit
T2 construct: purchased Enzo life sciences BML-AK308
T2 sequence (P08254 100-477): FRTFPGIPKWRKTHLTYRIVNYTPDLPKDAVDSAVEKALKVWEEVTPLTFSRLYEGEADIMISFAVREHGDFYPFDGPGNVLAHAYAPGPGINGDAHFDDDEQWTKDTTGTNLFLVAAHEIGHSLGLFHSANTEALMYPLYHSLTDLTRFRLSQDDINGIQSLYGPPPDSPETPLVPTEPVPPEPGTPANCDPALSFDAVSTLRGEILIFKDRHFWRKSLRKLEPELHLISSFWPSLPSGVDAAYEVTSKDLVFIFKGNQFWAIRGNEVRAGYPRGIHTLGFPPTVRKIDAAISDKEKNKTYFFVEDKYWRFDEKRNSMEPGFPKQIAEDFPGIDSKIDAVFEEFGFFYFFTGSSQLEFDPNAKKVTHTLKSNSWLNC
Description: as §2

MMP-14 [2] = biological target: T3, MMP-14 (Homo sapiens, UniProt P50281); test: as above; assay type: biochemical
T3 construct: purchased Enzo life sciences BML-AK308
Description: as §2

MMP-8 = biological target: T4, MMP-8 (Homo sapiens, UniProt P22894); test: as above; assay type: biochemical
T4 construct: purchased Enzo life sciences BML-AK308
T4 sequence (P22894 101-467): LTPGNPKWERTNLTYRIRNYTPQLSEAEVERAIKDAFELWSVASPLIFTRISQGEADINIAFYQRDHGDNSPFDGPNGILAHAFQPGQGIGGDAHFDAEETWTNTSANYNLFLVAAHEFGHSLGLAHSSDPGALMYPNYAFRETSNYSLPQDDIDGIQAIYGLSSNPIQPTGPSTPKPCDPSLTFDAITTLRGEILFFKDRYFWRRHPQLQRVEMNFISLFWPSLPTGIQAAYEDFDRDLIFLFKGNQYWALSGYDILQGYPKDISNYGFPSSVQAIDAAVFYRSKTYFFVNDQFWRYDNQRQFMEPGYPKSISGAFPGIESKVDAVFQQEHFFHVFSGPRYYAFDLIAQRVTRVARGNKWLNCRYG
Description: as §2

MMP-7 = biological target: T5, MMP-7 (Homo sapiens, UniProt P09237); test: as above; assay type: biochemical; details: human recombinant MMP-7, 60 min preincubation, four-parameter fit
T5 construct: purchased Enzo life sciences BML-AK308
T5 sequence (P09237 95-267): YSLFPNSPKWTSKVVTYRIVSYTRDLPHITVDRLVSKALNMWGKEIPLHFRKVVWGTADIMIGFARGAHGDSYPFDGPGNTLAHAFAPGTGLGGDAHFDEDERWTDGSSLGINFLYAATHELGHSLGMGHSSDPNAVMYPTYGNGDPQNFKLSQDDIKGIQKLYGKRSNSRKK
Description: as §2

MMP-1 = biological target: T6, MMP-1 (Homo sapiens, UniProt P03956); test: as above; assay type: biochemical; details: human recombinant MMP-1, 60 min preincubation, four-parameter fit
T6 construct: purchased Enzo life sciences BML-AK308
T6 sequence (P03956 100-469): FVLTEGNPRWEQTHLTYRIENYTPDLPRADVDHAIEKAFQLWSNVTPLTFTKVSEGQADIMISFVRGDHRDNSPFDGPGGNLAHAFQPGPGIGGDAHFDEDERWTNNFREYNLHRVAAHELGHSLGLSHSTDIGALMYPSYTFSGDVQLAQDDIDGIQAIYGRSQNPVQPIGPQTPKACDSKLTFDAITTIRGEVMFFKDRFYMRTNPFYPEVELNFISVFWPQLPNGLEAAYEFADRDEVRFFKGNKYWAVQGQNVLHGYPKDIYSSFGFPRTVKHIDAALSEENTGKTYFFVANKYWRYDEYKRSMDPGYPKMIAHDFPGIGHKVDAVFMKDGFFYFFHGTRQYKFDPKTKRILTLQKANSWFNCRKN
Description: as §2

MMP = test: Broad-spectrum MMP activity in embryonic brain (fluorometric substrate); assay type: in vivo, mouse; details: GD 16.5, dams 50 mg/kg/day oral GD 0.5-15.5, compared to controls
Description: Broad-spectrum MMP activity was measured in whole brain tissue homogenates of normal, viable embryos (GD 16.5) using a quenched fluorogenic substrate, OMNIMMP® RED (BML-P277-0100, Enzo Life Sciences). Whole brain tissues were isolated from randomly selected embryos from different dams for both DTG and control groups. Tissues were homogenized in NP-40 lysis buffer using a Qiagen TissueLyzer II (Valencia, CA). Tissue lysates were centrifuged at 16,000 g at 4 °C for 20 min and supernatants were collected. Total protein levels in each sample were quantitated using Pierce™ BCA Protein Assay Kit (Thermo Fisher Scientific, Waltham, MA). The assays were performed in a 96-well, black, flat, microplate format. Fifty micrograms of protein for each sample was incubated with buffer (BML-KI175-0020, Enzo Life Sciences) at 37 °C for 60 min. Each sample was platted in duplicates. Later, reaction was started by adding fluorogenic substrate. Plate was read at similar instructions mentioned above for fluorometric substrate assay. Ilomastat (GM6001; broad-spectrum MMP inhibitor, ab120845, abcam) was added to randomly selected protein samples in additional wells at 20 µM concentration as an assay control.

C3H/HeJ mice pups, brain = test: Diffusion tensor imaging of pups; assay type: in vivo, mouse
Description: In vivo bioimaging (diffusion tensor imaging (DTI) and magnetic resonance spectroscopy (^1H MRS)) was performed using a 7 Tesla/16 cm Bruker PharmaScan or a 7 Tesla 21 cm Bruker Biospec (Karlsure, Germany) MRI/MRS system. At PND 28–34, DTI was performed on live mice pups to determine microstructural changes. Animals from both DTG- and vehicle-treated (control) groups were scanned. Pups (male and female) were randomly selected from each dam. As described in our previous work, a 4-segment echo planar imaging (EPI) readout with a balanced, rotationally invariant and alternating polarity icosahedral scheme (12 directions) and b value = 800 s/mm^2 were utilized. Diffusion Toolkit (http://trackvis.org/dtk/) was used to calculate DTI metrics, fractional anisotropy (FA). Region of interest (ROI) analysis was performed to measure DTI metrics on hippocampus (HI), cortex (CT), striatum (ST), thalamus (TH), hypothalamus (HY), and cerebellum (CE).

**Q.** What does the source list for `C[C@@H]1CCO[C@H]2Cn3cc(C(=O)NCc4ccc(F)cc4F)c(=O)c(O)c3C(=O)N12` [DTG, Dolutegravir]?
**A.** protein levels of MMP-2 in embryo brain tissue (MMP-2): No significant differences; protein levels of MMP-14 in embryo brain tissue (MMP-14 [1]): No significant differences; protein levels of MMP-9 in embryo brain tissue (MMP-9): No significant differences; inhibitory effect compared to doxycycline (MMP-13; MMP-13, 20 µM): higher inhibitory effect; pIC50 (MMP-13; human recombinant MMP-13, 60 min preincubation, four-parameter fit): 4.44; pIC50 (MMP-3): 4.22; inhibitory effect compared to doxycycline (MMP-14 [2]; MMP-14, 20 µM): higher inhibitory effect; pIC50 (MMP-14 [2]; human recombinant MMP-14, 60 min preincubation, four-parameter fit): 4.98; inhibitory effect compared to doxycycline (MMP-8; MMP-8, 20 µM): higher inhibitory effect; pIC50 (MMP-8; human recombinant MMP-8, 60 min preincubation, four-parameter fit): 4.92; pIC50 (MMP-7): 3.51; pIC50 (MMP-1): 4.08; Broad-spectrum MMP activity in embryonic brain (MMP): significantly inhibited; fractional anisotropy (FA) values vs control (C3H/HeJ mice pups, brain; PND 28-34, all six brain regions (HI, CT, ST, TH, HY, CE)): significantly lower; fractional anisotropy (FA) values vs control (C3H/HeJ mice pups, brain; female pups, HI): trend of decrease; fractional anisotropy (FA) values vs control (C3H/HeJ mice pups, brain; female pups, TH): significant reduction; fractional anisotropy (FA) values vs control (C3H/HeJ mice pups, brain; male pups, HI, CT, ST and HY): significantly reduced; fractional anisotropy (FA) values vs control (C3H/HeJ mice pups, brain; male pups, TH and CE): trend of reduced FA values
